Results from patent US10409869B2, “(R)- and (S)-1-(3-(3-N,N-dimethylaminocarbonyl)phenoxyl-4-nitrophenyl)-1-ethyl-N,N'-bis (ethylene)phosphoramidate, compositions and methods for their use and preparation” (OBI Pharma, Inc., priority 2015, dated 2019).

What was measured:
[1] = Serum chemistry in monkeys, 2 mg/kg 30-min IV infusion; format: in vivo, Cynomolgus monkeys
Method: TH 3423 and TH 3424 were tested in […] naïve monkeys (1 male and one female for each compound at 2 mg/kg) with 30-min intravenous infusion, TK sampling: on Day 1 and Day 15: 0.25, 0.5, 0.75, 1 and 2 hr post infusion initiation. Serum chemistry and hematology: pre-dose (Day 1), day 5, day 8 (pre-dose), day 15 (pre-dose), day 22 and day 28. Clinical observation: Daily during the study, total 35 days. Food consumption: Daily during the study, total 35 days. Bodyweight measurement: Twice weekly for five weeks.

[2] = tested on: AL7473 cells; test: T-cell leukemia animal model, human CD45 FACS; format: in vivo, mouse
Method: Leukemic cells were prepared by thawing out ˜150×10^6 of AL7473 cells from LN2 (about 2-3 vials) and placing them into a 37° C. water bath rapidly. All of the cells were transferred into a 50 ml falcon tube with 40 ml pre-warmed complete medium. The cells were centrifuged at 1200 rpm for 5 min. The cells were re-suspended with 40 ml RPMI1640. The cells were then counted. The cells were centrifuged at 1200 rpm for 5 min. and re-suspended with ice cold PBS to 2 million cell per 100 ul PBS. 100 ul of saline containing 2×10^6 cells prepared above were used to inject into each mouse by IV. The FACS analysis was done for blood weekly during the experimental period by transferring samples into FACS tubes, adding human CD45 FITC and isotypes into corresponding tubes for all the samples and incubating the cells on ice for 30 min. in the dark. 2 ml of red blood cell lysing buffer was added to each tube and incubated on ice for another 30 min. in the dark. […] Samples were analyzed on a BD Calibur by using Cell Quest or Flowjo and the results were analyzed by using Prism 5.0. […]
Peripheral blood was collected weekly for human CD45 antibody FACS detected during treatment since the treatment start on Day 43 post cell inoculation. […] Blood, spleen and bone marrow of all mice were collected for human CD45 FACS detected. […]

C[C@H](OP(=O)(N1CC1)N1CC1)c1ccc([N+](=O)[O-])c(Oc2cccc(C(=O)N(C)C)c2)c1 (single isomer, unassigned) [TH3424]
A/G ([1]; female, Day 1 (pre-dose)): 1.9
ALB ([1]; female, Day 1 (pre-dose)): 46.1 g/L
ALP ([1]; female, Day 1 (pre-dose)): 134.2 U/L
ALT ([1]; female, Day 1 (pre-dose)): 61.6 U/L
AST ([1]; female, Day 1 (pre-dose)): 23.7 U/L
BUN ([1]; female, Day 1 (pre-dose)): 3.43 mM
CK ([1]; female, Day 1 (pre-dose)): 202 U/L
CREA ([1]; female, Day 1 (pre-dose)): 61 µM
Ca ([1]; female, Day 1 (pre-dose)): 2.51 mmol/L
GLB ([1]; female, Day 1 (pre-dose)): 24.1 g/L
Glu ([1]; female, Day 1 (pre-dose)): 3.34 mM
K ([1]; female, Day 1 (pre-dose)): 5.77 mmol/L
Na ([1]; female, Day 1 (pre-dose)): 143 mmol/L
TBIL ([1]; female, Day 1 (pre-dose)): 1.5 µM
TC ([1]; female, Day 1 (pre-dose)): 3.04 mM
TG ([1]; female, Day 1 (pre-dose)): 0.17 mmol/L
TP ([1]; female, Day 1 (pre-dose)): 70.2 g/L
γ-GT ([1]; female, Day 1 (pre-dose)): 47.3 U/L
A/G ([1]; female, Day 8 (pre-dose)): 1.4
ALB ([1]; female, Day 8 (pre-dose)): 41.8 g/L
ALP ([1]; female, Day 8 (pre-dose)): 200.2 U/L
ALT ([1]; female, Day 8 (pre-dose)): 37.7 U/L
AST ([1]; female, Day 8 (pre-dose)): 43.1 U/L
BUN ([1]; female, Day 8 (pre-dose)): 5.63 mM
CK ([1]; female, Day 8 (pre-dose)): 190 U/L
CREA ([1]; female, Day 8 (pre-dose)): 88 µM
Ca ([1]; female, Day 8 (pre-dose)): 2.37 mmol/L
GLB ([1]; female, Day 8 (pre-dose)): 30.6 g/L
Glu ([1]; female, Day 8 (pre-dose)): 5.91 mM
K ([1]; female, Day 8 (pre-dose)): 4.33 mmol/L
Na ([1]; female, Day 8 (pre-dose)): 143 mmol/L
TBIL ([1]; female, Day 8 (pre-dose)): 0.8 µM
TC ([1]; female, Day 8 (pre-dose)): 2.91 mM
TG ([1]; female, Day 8 (pre-dose)): 0.63 mmol/L
TP ([1]; female, Day 8 (pre-dose)): 72.4 g/L
γ-GT ([1]; female, Day 8 (pre-dose)): 36.2 U/L
A/G ([1]; female, Day 15 (pre-dose)): 1.6
ALB ([1]; female, Day 15 (pre-dose)): 38.5 g/L
ALP ([1]; female, Day 15 (pre-dose)): 151.5 U/L
ALT ([1]; female, Day 15 (pre-dose)): 31.9 U/L
AST ([1]; female, Day 15 (pre-dose)): 23.8 U/L
BUN ([1]; female, Day 15 (pre-dose)): 3.87 mM
CK ([1]; female, Day 15 (pre-dose)): 78 U/L
CREA ([1]; female, Day 15 (pre-dose)): 46 µM
Ca ([1]; female, Day 15 (pre-dose)): 2.2 mmol/L
GLB ([1]; female, Day 15 (pre-dose)): 23.8 g/L
Glu ([1]; female, Day 15 (pre-dose)): 2.8 mM
K ([1]; female, Day 15 (pre-dose)): 5.58 mmol/L
Na ([1]; female, Day 15 (pre-dose)): 132.59 mmol/L
TBIL ([1]; female, Day 15 (pre-dose)): 4.0 µM
TC ([1]; female, Day 15 (pre-dose)): 2.23 mM
TG ([1]; female, Day 15 (pre-dose)): 0.94 mmol/L
TP ([1]; female, Day 15 (pre-dose)): 62.3 g/L
γ-GT ([1]; female, Day 15 (pre-dose)): 34.2 U/L
A/G ([1]; male, Day 1 (pre-dose)): 2.5
ALB ([1]; male, Day 1 (pre-dose)): 50.5 g/L
ALP ([1]; male, Day 1 (pre-dose)): 287.5 U/L
ALT ([1]; male, Day 1 (pre-dose)): 43.0 U/L
AST ([1]; male, Day 1 (pre-dose)): 40.2 U/L
BUN ([1]; male, Day 1 (pre-dose)): 4.89 mM
CK ([1]; male, Day 1 (pre-dose)): 221 U/L
CREA ([1]; male, Day 1 (pre-dose)): 91 µM
Ca ([1]; male, Day 1 (pre-dose)): 2.38 mmol/L
GLB ([1]; male, Day 1 (pre-dose)): 19.9 g/L
Glu ([1]; male, Day 1 (pre-dose)): 4.5 mM
K ([1]; male, Day 1 (pre-dose)): 4.31 mmol/L
Na ([1]; male, Day 1 (pre-dose)): 147 mmol/L
TBIL ([1]; male, Day 1 (pre-dose)): 2.1 µM
TC ([1]; male, Day 1 (pre-dose)): 3.22 mM
TG ([1]; male, Day 1 (pre-dose)): 0.38 mmol/L
TP ([1]; male, Day 1 (pre-dose)): 70.4 g/L
γ-GT ([1]; male, Day 1 (pre-dose)): 62.2 U/L
A/G ([1]; male, Day 8 (pre-dose)): 2.0
ALB ([1]; male, Day 8 (pre-dose)): 43.3 g/L
ALP ([1]; male, Day 8 (pre-dose)): 225.2 U/L
ALT ([1]; male, Day 8 (pre-dose)): 31.2 U/L
AST ([1]; male, Day 8 (pre-dose)): 31.2 U/L
BUN ([1]; male, Day 8 (pre-dose)): 4.8 mM
CK ([1]; male, Day 8 (pre-dose)): 83 U/L
CREA ([1]; male, Day 8 (pre-dose)): 96 µM
Ca ([1]; male, Day 8 (pre-dose)): 2.33 mmol/L
GLB ([1]; male, Day 8 (pre-dose)): 21.8 g/L
Glu ([1]; male, Day 8 (pre-dose)): 4.15 mM
K ([1]; male, Day 8 (pre-dose)): 4.51 mmol/L
Na ([1]; male, Day 8 (pre-dose)): 147 mmol/L
TBIL ([1]; male, Day 8 (pre-dose)): 3.6 µM
TC ([1]; male, Day 8 (pre-dose)): 3.06 mM
TG ([1]; male, Day 8 (pre-dose)): 0.66 mmol/L
TP ([1]; male, Day 8 (pre-dose)): 65.1 g/L
γ-GT ([1]; male, Day 8 (pre-dose)): 44.9 U/L
A/G ([1]; male, Day 15 (pre-dose)): 2.2
ALB ([1]; male, Day 15 (pre-dose)): 36.8 g/L
ALP ([1]; male, Day 15 (pre-dose)): 174.8 U/L
ALT ([1]; male, Day 15 (pre-dose)): 45.0 U/L
AST ([1]; male, Day 15 (pre-dose)): 73.5 U/L
BUN ([1]; male, Day 15 (pre-dose)): 9.66 mM
CK ([1]; male, Day 15 (pre-dose)): 172 U/L
CREA ([1]; male, Day 15 (pre-dose)): 58 µM
Ca ([1]; male, Day 15 (pre-dose)): 2.14 mmol/L
GLB ([1]; male, Day 15 (pre-dose)): 16.4 g/L
Glu ([1]; male, Day 15 (pre-dose)): 1.47 mM
K ([1]; male, Day 15 (pre-dose)): 6.05 mmol/L
Na ([1]; male, Day 15 (pre-dose)): 136.14 mmol/L
TBIL ([1]; male, Day 15 (pre-dose)): 2.1 µM
TC ([1]; male, Day 15 (pre-dose)): 1.44 mM
TG ([1]; male, Day 15 (pre-dose)): 0.41 mmol/L
TP ([1]; male, Day 15 (pre-dose)): 53.2 g/L
γ-GT ([1]; male, Day 15 (pre-dose)): 36.7 U/L
percentages of human CD45+ leukemia cells in peripheral blood ([2]; after the second dosing, treatment groups 2-4 vs vehicle group 1, P<0.001): significantly lower than vehicle group
tumor burden (human CD45) in blood, spleen and bone marrow at termination ([2]; groups 2-4 vs group1, P<0.01, bone marrow in group2 P<0.05): significant differences
